Patent US10183036B2, “Use of nicotinic acid riboside or nicotinamide riboside derivatives, and reduced derivatives thereof, as NAD+ increasing precursors” (Chromadex Inc., priority 2016, dated 2019)

How the values were obtained:
[1] = system: Hela cells; assay: NAD content in cultured Hela cells supplemented with NAD+ precursor (EnzyChrom NAD+/NADH assay kit); format: cell-based; settings: 100 μM precursor, 24 h at 37° C., control = 100.0; for activity at 100 µM: Homo sapiens
Experimental: Hela cells (passages 5-9) were grown in cell culture medium DMEM with 10% serum and were seeded in 6-well plates with a density of 3×10^5 cells per well containing 1 ml of culture medium overnight. The wells were aspirated, washed with PBS and 2 mL of fresh cell culture media was added. […] The media was aspirated and the wells washed with PBS, and for each condition 1×10^5 cells were isolated and analyzed using an ENZYCHROM™ NAD+/NADH ASSAY KIT (E2ND-100) following the manufacturer protocol (BioAssay Systems, Hayward, Calif.). This standard assay provides a quantitative colorimetric determination of NAD+/NADH at 565 nm.
Further, FIG. 9 presents the same data as a fold-increase in NAD over control. FIG. 8 presents a measurement of absolute NAD values (μM) in Hela cells (n=4) cultured in growth media supplemented with 100 μM of the corresponding NAD^+ precursor (nicotinyl riboside test compound) for 24 hours, versus control (NAD content in cells measured in the absence of treatment compound). A control value was determined for each replicate data set.

[2] = Stability in aqueous solution at various temperature and pH; format: physicochemical
Experimental: Nicotinamide riboside (NR) was prepared in 1000 ppm aqueous solution (w/v) at 2.5, 3.5 and 4.7 pH levels. Nicotinic acid riboside (NAR) was prepared n 1000 ppm aqueous solution (w/v) at 2.5, 3.5 and 6.2 pH levels. The six sample solutions were aliquoted into various small sealed vials to be used as individual sample pull points for analysis.

[3] = system: cells; settings: Kulikova et al. 2015; cited from earlier work

CC(=O)OC[C@H]1O[C@@H]([n+]2cccc(C(=O)O)c2)[C@H](OC(C)=O)[C@@H]1OC(C)=O [NAR TA, 1-(2′,3′,5′-triacetyl-beta-D-ribofuranosyl)-nicotinic acid]
activity at 100 µM [1]: 173%

O=C(O)c1ccc[n+]([C@@H]2O[C@H](CO)[C@H](O)[C@H]2O)c1 [NAR, Nicotinic acid riboside]
assay (concentration remaining) after storage ([2]; 1000 ppm aqueous solution, 4° C., after 140 days): greater than 95% | stability in comparison to NR ([2]; aqueous solution, 4° C. and 25° C., all measured pH levels): much greater stability | stability over time in weeks ([2]; aqueous solution, higher temperature and lower pH): markedly decreased | concentration that supports cell survival [3]: about 1 micromolar | activity at 100 µM [1]: 295%

O=C(O)C1=CN([C@@H]2O[C@H](CO)[C@@H](O)[C@H]2O)C=CC1 [NARH, 1-(beta-D-ribofuranosyl)-1,4-dihydronicotinic acid]
activity at 100 µM [1]: 147%

CC(=O)OC[C@H]1O[C@@H]([n+]2cccc(C(N)=O)c2)[C@H](OC(C)=O)[C@@H]1OC(C)=O [NR TA, 1-(2′,3′,5′-triacetyl-beta-D-ribofuranosyl)-nicotinamide]
activity at 100 µM [1]: 199%

NC(=O)c1ccc[n+]([C@@H]2O[C@H](CO)[C@@H](O)[C@H]2O)c1 [NR, Nicotinamide riboside]
amount required to maintain viability relative to NAR [3]: 10 times | activity at 100 µM [1]: 141%

CC(=O)OC[C@H]1O[C@@H](N2C=CCC(C(N)=O)=C2)[C@H](OC(C)=O)[C@@H]1OC(C)=O [NRH TA, 1-(2′,3′,5′-triacetyl-beta-D-ribofuranosyl)-1,4-dihydronicotinamide]
activity at 100 µM [1]: 146%

CC(=O)O[C@@H]1[C@@H](COC(=O)c2cccnc2)OC(=O)[C@@H]1OC(C)=O [cyclic, 2′,3′-diacetyl-5′-nicotinoyl ribolactone]
NAD % vs control [1]: 178.0%
